The source of these data is patent US20220251039A1, “Diaryl-B-Lactam Compound and Preparation Method and Pharmaceutical Use Thereof” (Fudan University, priority 2016, published 2022).

Each structure is given as a SMILES string. “Also recorded” adds a separate entry of the source.

The subject of data set [1] is tubulin. As to the kind of experiment: Immunofluorescent analysis of tubulin morphology. The format is cell-based, human. As to conditions: SKOV-3 cells, 24 h. The method, then: After treatment with diluent (0.2% DMSO) or tested compounds at indicated concentrations for 24 h, SKOV-3 cells were fixed with methanol, permeabilized with 0.1% Triton X-100 in PBS and blocked by goat serum. Then the cells were incubated with a-tubulin antibody at 4° C. overnight, followed by incubation with Alexa 488 labeled secondary antibody (Jackson ImmunoResearch) at RT for 1 h. After being stained with DAPI, cells were examined and photographed with a Leica SP5 co-focal fluorescence microscope.

Data set [2] relates to tubulin. Description: Immunoblotting analysis of polymerized/depolymerized tubulin. The following applies: Hela cells, 6 h. It counts as cell-based, human. The method, then:
After being treated with diluent (0.2% DMSO), tested compound, CA-4 or PTX for 6 h, Hela cells were lysed with microtubulestabilizing buffer, containing 100 mM PIPES, pH 6.8, 1 mM MgCl2, 2 mM EGTA, 0.5% NP-40, 2 M glycerol, 5 μM PTX and protease inhibitors cocktail (Roche), and the lysate was centrifuged at 15,000 rpm for 15 min. Supernatant containing depolymerized tubulin was carefully collected, whereas pellet (polymerized tubulin) was further dissolved in SDS-lysis buffer (Beyotime, China). Equal amounts of supernatant and dissolved pellet were subjected to immunoblotting analysis as described above using a tubulin antibody (Proteintech).
(In general: Immunoblotting shows a protein as a band on a membrane.)

Another data set concerns KM mice. As to the kind of experiment: Acute toxicity assay. The format is in vivo. The method, then: KM mice were housed individually in a specific pathogen free facility. Groups of mice (n=10 per group, half male and half female) were injected intraperitoneally once with various dosages of 69 (95, 70, 50, 35, 25 mg/kg), 70 (500, 425, 350, 275, 200 mg/kg), 97 (275, 200, 150, 125 and 100 mg/kg) or vehicle (8.3% cremohorp EL and 8.3% alcohol in PBS) as negative control, respectively. 69, 70 and 97 was dissolved in cremeohore EL and alcohol mixture (1:1, v/v) and further diluted with PBS (1:5, v/v). The death of mice were monitored daily and recorded up to 14 days after injection.

For data set [3], the system named is Bax, p53 and cleaved-PARP. Description: Expression level of apoptosis associated proteins. It counts as cell-based, human. As to conditions: HeLa cells, Western blot and qPCR. As for the experimental part:
A. Western blotting: After being treated with candidate compound, cells were harvested and lysed. Then, the lysate was isolated by ultracentrifuge and quantified by BCA assay according to the protocol. After being denatured, equivalent protein of each sample was separated by SDS-PAGE gel and wet-transferred onto […] nitrocellulose membrane. After being blocked by PBS containing 5% skim milk, the membrane was incubated with primary antibody at 4° C. overnight and secondary antibody at room temperature for 2 h and then visualized by enhanced chemiluminescence kit (Thermo Fisher, USA), sequentially.
(§1) B. Quantitative PCR assay: HeLa cells were treated with 69, 70 or 97. The expression level of mRNA of target proteins was tested with qPCR kit (Takara).

Data set [4] concerns p-histone H3, cyclin B1 and BuBR1. As to the kind of experiment: Cell cycle associated proteins assay. It counts as cell-based, human. The following applies: HeLa cells, 24 h, Western blot and qPCR. As for the experimental part: A. HeLa cells were treated with 69, 70, 97 or DMSO for 24 h. After being harvested, the cells were lysed, and the concentrations of total protein were determined by BCA protein assay kit (Beyotime, China). […] The membrane was blocked with 5% BSA in TBST for 1.5 h, then incubated overnight with specific primary antibodies (Proteintech) at 4° C. After being washed three times by TBST, the membrane was incubated with specific secondary antibodies (Abnova, Taipei, China) at room temperature for 2 h. Finally, chemiluminescent reagents (Millipore) were employed to detect the protein bands.
as §1

A further data set has as its system MDA-MB-231 cells. Description: Colony formation assay. It counts as cell-based, human. The following applies: 48 h treatment, 7-10 days growth. The method, then:
1000 MDA-MB-231 cells per well were seeded into 6-well plate at a single cell density and were cultured at 37° C. for 48 h. After being treated with indicated concentrations of 69, 70 and 97, CA-4 as positive control, or diluent (0.2% DMSO) as negative control for 48 h, the agents containing medium was replaced by fresh medium to allow cell growth for additional 7-10 days. Then the cells were fixed with methanol and stained with gentian violet for 30 min. The number of colonies which consisted of more than 50 cells were counted. The results were indicated as mean values from three independent determinations.

A further data set deals with cellular apoptosis. Description: Cell apoptosis analysis (Annexin V/PI). As to conditions: 48 h, Annexin-V/PI flow cytometry. It counts as cell-based. The method, then:
Cell apoptosis was detected using FITC Annexin V Apoptosis Detection Kit (BD Biosciences) according to manufacturer's instructions. Briefly, cells were incubated with indicated concentrations of 69, 70 and 97, CA-4 as positive control or diluent (0.2% DMSO) as negative control for 48 h. Then the cells were harvested, washed twice with PBS, and re-suspended in binding buffer. After being stained with Annexin-V and PI for 15 min in the dark place, cells were subjected to flow cytometry (Cytomics FC 500 MPL, Beckman Coulter) analysis. The results were indicated as mean values from three independent determinations.
(Flow cytometry measures light scatter and fluorescence of single cells or particles in a stream.)

For another data set, the system named is A2780 cells. Description: Xenografts tumor growth assay in nude mice. It counts as in vivo, Balb/c nude mice. As to conditions: A2780 xenograft. The method, then: 6 weeks old female Balb/c nude mice were purchased from Shanghai Slac Laboratory Animal Co. Ltd. (Shanghai, China). 2*10^6 A2780 cells suspended in 0.2 mL PBS per mouse was injected subcutaneously into the nude mice. […] Administration of agents or vehicle, or agents and measurement of tumor volumes with a digital caliper was done once every 2 days. Tumor volumes were calculated as volume=shortest diameter (W)^2*longest diameter (L)*0.52. When the average tumor volumes of vehicle treated group reached 2000 mm^3 in diameter, the mice were sacrificed and the tumors were isolated and weighed. Visceral organs of the mice as well as solid tumors were further analyzed by H&E staining.

As for `C=C1C(=O)N(c2cc(OC)c(OC)c(OC)c2)[C@H]1c1ccc(OC)c(O)c1` [Compound 1, (S)-4-(3-hydroxy-4-methoxyphenyl)-3-methylene-1-(3,4,5-trimethoxyphenyl)azetidin-2-one], the “tubulin assembly (immunofluorescence)” value with tubulin [1] is “significantly inhibit tubulin aggregation”. For the same compound, the “polymerized tubulin (immunoblotting)” value in the data set with tubulin [2] was “significantly inhibit tubulin aggregation”.

Regarding `COc1ccc([C@H]2[C@H](CO)C(=O)N2c2cc(OC)c(OC)c(OC)c2)cc1O` [Compound 69, (3R,4R)-4-(3-hydroxy-4-methoxyphenyl)-3-(hydroxymethyl)-1-(3,4,5-trimethoxyphenyl)azetidin-2-one], in the data set on KM mice (25 mg/kg i.p. once), the “No. of dead mice 5-14 days” value amounted to 0, the “No. of dead mice 1 day” value was 0, the “No. of dead mice 2 days” value came out at 0 and the “No. of dead mice 3 days” value worked out at 0. In the data set with KM mice (25 mg/kg i.p. once), the “No. of dead mice 4 days” value is 0, the “No. of dead mice Total death” value came to 0 and the “Survival (%) on day 14” value worked out at 100%. In the data set with KM mice (35 mg/kg i.p. once), the “No. of dead mice 5-14 days” value is given as 0, the “No. of dead mice 1 day” value was determined as 0, the “No. of dead mice 2 days” value turned out to be 0 and the “No. of dead mice 3 days” value came out at 1. Also, in the data set on KM mice (35 mg/kg i.p. once), the “No. of dead mice 4 days” value is reported as 0, the “No. of dead mice Total death” value is given as 1 and the “Survival (%) on day 14” value amounted to 90%. Also, in the data set with KM mice (50 mg/kg i.p. once), the “No. of dead mice 5-14 days” value was 0, the “No. of dead mice 1 day” value is recorded as 0, the “No. of dead mice 2 days” value was determined as 0 and the “No. of dead mice 3 days” value is on record as 1. In the data set on KM mice (50 mg/kg i.p. once), the “No. of dead mice 4 days” value is given as 0, the “No. of dead mice Total death” value came to 1 and the “Survival (%) on day 14” value was 90%. Besides, in the data set with KM mice (70 mg/kg i.p. once), the “No. of dead mice 5-14 days” value amounted to 1, the “No. of dead mice 1 day” value is recorded as 0, the “No. of dead mice 2 days” value is 0 and the “No. of dead mice 3 days” value is listed as 4. In the data set with KM mice (70 mg/kg i.p. once), the “No. of dead mice 4 days” value is given as 2, the “No. of dead mice Total death” value was found to be 7 and the “Survival (%) on day 14” value turned out to be 30%. For the same compound, in the data set with KM mice (95 mg/kg i.p. once), the “No. of dead mice 5-14 days” value is reported as 1, the “No. of dead mice 1 day” value was found to be 0, the “No. of dead mice 2 days” value is reported as 0 and the “No. of dead mice 3 days” value was determined as 6. In the data set on KM mice (95 mg/kg i.p. once), the “No. of dead mice 4 days” value came out at 1, the “No. of dead mice Total death” value is given as 8 and the “Survival (%) on day 14” value was 20%. Also, the “expression of Bax, p53 and cleaved-PARP” value in data set [3] is “significantly promote the expression of the proapoptotic protein Bax, the tumor suppressor gene p53, and the cleaved DNA repair enzyme; also recorded: significantly induce the expression of Bax, p53 and cleaved-PARP”. Moreover, in the data set with tubulin [1], the “tubulin assembly (immunofluorescence)” value was “significantly inhibit tubulin aggregation; also recorded: strongly inhibit tubulin assembly in cancer cells”. The “expression of p-histone H3, cyclin B1 and BuBR1” value in data set [4] was “significantly promote the expression of phosphorylated histone H3, cyclin B1, and mitotic checkpoint protein BuBR1”. In the data set on tubulin [2], the “polymerized tubulin (immunoblotting)” value was “significantly inhibit tubulin aggregation; also recorded: dramatically reduction of polymerized tubulin”. Also, the colony formation result with MDA-MB-231 cells was “significantly inhibit the formation of colonies of cancer cells”. Further, the cellular apoptosis entry in the data set with cellular apoptosis is on record as “significantly promote apoptosis; also recorded: significantly induce cellular apoptosis”. For the same compound, in the data set on A2780 cells (i.p. once every 2 days, 69 7.5 mg/kg, 70 12.5 mg/kg, 97 4 or 8 mg/kg), the “tumor growth in vivo” value was “significantly inhibit tumor growth in vivo; also recorded: anti-tumor activities in vivo”. Further, in the data set on A2780 cells (treated groups), the “H&E staining of liver, kidney and spleen” value was “no abnormal areas are observed in tissue staining of liver, kidney and spleen; also recorded: no detectable abnormalities were observed in liver, kidney and spleen”; the “H&E staining of tumor sections (necrosis)” value is “cause tumor tissue to produce necrotic areas; also recorded: extensive areas of necrosis or cell death”.
